Measurements: patent US20130309380A1, “METHODS FOR PRESERVING FRESH PRODUCE” (NatureSeal, Inc., priority 2003, published 2013)

What was measured:
Red Delicious apples = assay: Evaluation of sliced Red Delicious apples (Examples 14 and 15, scores)
Protocol: The texture, flavor, and moistness of the fruit were evaluated by tasting fruit samples. The color and/or appearance was also evaluated by visual inspection. […] Then the apple slices were dipped for 1 minute into the following solutions: 3% ascorbic acid and 0.8% NH4Cl. For comparision, untreated slices were used as well as apple slices treated with 3% ascorbic acid or 2% ascorbic acid. The apples were removed, drained for 1-2 minutes, sealed in 2 mil, polyethylene bags, and stored at 2-5° C. Red Delicious apples were preserved with the fresh produce preservative as in Example 14a, except that the preservative solution contained 3.0% ascorbic acid and 0.8% CuSO4.

Hass avocadoes = assay: Evaluation of sliced Hass avocadoes preserved with fresh produce preservative (scores)
Protocol: (§1) The texture, flavor, and moistness of the fruit were evaluated by tasting fruit samples. The color and/or appearance was also evaluated by visual inspection. The color, texture, moistness and flavor were then evaluated according to a scale of either 1 to 10, with 10 being the value assigned to a freshly cut piece of comparative fruit or vegetable. A value of less than 7 is not acceptable.
(§2) Whole Red Delicious apples were rinsed with tap water, sanitized with a sodium hypochlorite solution containing 100 ppm chlorine, then cored and sliced. The apple slices were immersed in water for 0.5 to 2 minutes. Then the apple slices were dipped into produce preservative solution containing 4% ascorbic acid and 1.59% K2CO3 having a pH 5.69 for 1 minute. The slices were removed from the solution and drained for 1-2 minutes, sealed in polyethylene bags, and stored at 2-5° C. For controls, sliced apples either not treated or were dipped into either 4% ascorbic acid with 0.66% NaOH to adjust the pH to 4.45. For comparison, sliced apples were dipped into a solution containing 4% ascorbic acid and 1.22% Na2CO3 and having a pH of 5.58.
Hass avocadoes were preserved with the fresh produce preservative as in Example 1a, except that the preservative solution contained 9.3% ascorbic acid and 5.7% MnCl2.4H2O.
Sliced Hass avocadoes were preserved with the fresh produce preservative as in Example la, except that the preservative solution contained 6.5% ascorbic acid and 3.5% potassium chloride. For control, a 7% ascorbic acid solution was used.

Bramley apples = assay: Water released by sliced Bramley apples
Protocol: The firmness of the produce in Example 11a were evaluated by bending produce samples. Appearance was evaluated by visual inspection. The moisture was evaluated by measuring the amount of water the produce released.
Whole Bramley apples free from blemishes or bruises, were rinsed with water, sanitized with a sodium hypochlorite solution having 100 parts per million available chlorine, for two minutes, then peeled, cored, and sliced. The sliced apples were dipped into a fresh produce preservative solution that contained 5.12% strontium ascorbate; the fresh produce preservative solution contained 4.12% ascorbic acid and 1.79% […], for about 30 to 60 seconds. The apples were then drained in a colander for one minute. The apple slices and the colander were placed in 500 micron plastic bags from SunSet Packaging, stored at 4° C. and evaluated several times over a 15 day period. Water which collected in the plastic bag was removed and weighed.
For comparison, similarly prepared apple slices were placed in one of several solutions that contained either: 4.3% ascorbic acid and 1.13% hydrated MgCO3, specifically 4MgCO3.Mg(OH)25H2O or a 5.0% w/w aqueous solution of calcium ascorbate dihydrate, having a pH of 7.2; or a 5.3% w/w solution, of 4.12% ascorbic acid and 1.17% calcium carbonate,; or 6% ascorbic acid having a pH of 2.3; or 48 g ascorbic acid, 48 g citric acid, 16 g CaCl2 and 48 g NaCl in 800 g water, with a pH of 1.2; or 6% w/w citric acid and 6% w/w ascorbic acid; or 4.64% sodium ascorbate having 4.13% ascorbic acid and 1.18% NaCo3. […]

Bartlett pears = assay: Evaluation of sliced Bartlett pears preserved with fresh produce preservative (scores); set-up: key: 1–10 scale, 10 = freshly cut fruit; below 7 not acceptable; details: for Color / Flavor / Moistness / Texture: scale to 10; for color/appearance score: scale to 10 (Table 5)
Protocol: as §1, §2
Bartlett pears were preserved with the fresh produce preservative as in Example 1a, with preservative solution that contained 4% ascorbic acid and 1.59% K2-CO3. For comparison, pears were treated with a comparative solution that contained 4% ascorbic acid and 1.22% Na2CO3.
Bartlett pears were preserved with the fresh produce preservative as in Example 1a, except that the preservative solution contained 4% ascorbic acid and 1% Li2CO3.

Q: Which results are given for `O=C1O[C@H]([C@@H](O)CO)C(O)=C1O` [Ascorbic Acid, ascorbic acid]?
A: color/appearance score (Red Delicious apples; 1 hour, scale to 10 (Table 15)): 10; color/appearance score (Red Delicious apples; 1 hour, scale to 10 (Table 16)): 10; color/appearance score (Red Delicious apples; 24 hours, scale to 10 (Table 15), listed as 2% Ascorbic Acid Control, 2% Ascorbic Acid control dip): 5.33; color/appearance score (Red Delicious apples; 24 hours, scale to 10 (Table 15), listed as 3% Ascorbic Acid Control, 3% Ascorbic Acid control dip): 6; color/appearance score (Red Delicious apples; 24 hours, scale to 10 (Table 16), listed as 2% Ascorbic Acid Control, 2% Ascorbic Acid control): 5; color/appearance score (Red Delicious apples; 24 hours, scale to 10 (Table 16), listed as 3% Ascorbic Acid Control, 3% Ascorbic Acid control): 6; color/appearance score (Red Delicious apples; Day 3, scale to 10 (Table 15), listed as 2% Ascorbic Acid Control, 2% Ascorbic Acid control dip): 5; color/appearance score (Red Delicious apples; Day 3, scale to 10 (Table 15), listed as 3% Ascorbic Acid Control, 3% Ascorbic Acid control dip): 6; color/appearance score (Red Delicious apples; Day 3, scale to 10 (Table 16), listed as 2% Ascorbic Acid Control, 2% Ascorbic Acid control): 5; color/appearance score (Red Delicious apples; Day 3, scale to 10 (Table 16), listed as 3% Ascorbic Acid Control, 3% Ascorbic Acid control): 6; color/appearance score (Red Delicious apples; Day 4, scale to 10 (Table 15), listed as 2% Ascorbic Acid Control, 2% Ascorbic Acid control dip): 6; color/appearance score (Red Delicious apples; Day 4, scale to 10 (Table 15), listed as 3% Ascorbic Acid Control, 3% Ascorbic Acid control dip): 4; color/appearance score (Red Delicious apples; Day 5, scale to 10 (Table 15), listed as 2% Ascorbic Acid Control, 2% Ascorbic Acid control dip): 6; color/appearance score (Red Delicious apples; Day 5, scale to 10 (Table 15), listed as 3% Ascorbic Acid Control, 3% Ascorbic Acid control dip): 4; color/appearance score (Red Delicious apples; Day 6, scale to 10 (Table 15), listed as 2% Ascorbic Acid Control, 2% Ascorbic Acid control dip): 6; color/appearance score (Red Delicious apples; Day 6, scale to 10 (Table 15), listed as 3% Ascorbic Acid Control, 3% Ascorbic Acid control dip): 4; color/appearance score (Hass avocadoes; 1 day, scale to 10 (Table 6), listed as 6% Ascorbic Acid control, 6% Ascorbic Acid control): 6; color/appearance score (Hass avocadoes; 1 day, scale to 10 (Table 6), listed as 7% Ascorbic Acid control, 7% Ascorbic Acid control): 7; color/appearance score (Hass avocadoes; 1 day, scale to 10 (Table 6), listed as 8% Ascorbic Acid control, 8% Ascorbic Acid control): 8.5; color/appearance score (Hass avocadoes; 1 day, scale to 10 (Table 7)): 7; color/appearance score (Hass avocadoes; 2 days, scale to 10 (Table 7)): 6; color/appearance score (Hass avocadoes; 4 days, scale to 10 (Table 6)): 6; Water Released (Bramley apples; 4 hr at 4° C.): 6.78 g; Water Released (Bramley apples; 28 hr at 4° C.): 5.34 g; Water Released (Bramley apples; 52 hr at 4° C.): 4.19 g; Water Released (Bramley apples; 94 hr at 4° C.): 2.94 g; Water Released (Bramley apples; 191 hr at 4° C.): 2.63 g; Color (Bartlett pears; 0 hour): 10; Flavor (Bartlett pears; 0 hour): 5; Moistness (Bartlett pears; 0 hour): 10; Texture (Bartlett pears; 0 hour): 10; Color (Bartlett pears; 1 week): 8.6; Flavor (Bartlett pears; 1 week): 8.8; Moistness (Bartlett pears; 1 week): 7; Texture (Bartlett pears; 1 week): 3; Color (Bartlett pears; 2 weeks): 6.4; Flavor (Bartlett pears; 2 weeks): 3.4; Texture (Bartlett pears; 2 weeks): 1; Color (Bartlett pears; 1 day): 10; Flavor (Bartlett pears; 1 day): 9; Moistness (Bartlett pears; 1 day): 10; Texture (Bartlett pears; 1 day): 9.6; color/appearance score (Bartlett pears; 1 day): 10; color/appearance score (Bartlett pears; 2 days): 6
